Source: PubChem BioAssay (NCI)
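Dose response: 5 concentrations. Exposure: 48 h. Format: 96-well plates. Endpoint: linear interpolation; highest concentration if not reached. GI50 marks 50% less growth. TGI: concentration producing complete growth inhibition.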

What was measured:
Test in all cases: NCI-60 cell line screen, 48 h
ACHN renal = test system: ACHN renal
SF-268 CNS = test system: SF-268 CNS
RPMI-8226 leukemia = test system: RPMI-8226 leukemia
OVCAR-5 ovarian = test system: OVCAR-5 ovarian
CCRF-CEM leukemia = test system: CCRF-CEM leukemia
HCT-15 colon = test system: HCT-15 colon
SK-OV-3 ovarian = test system: SK-OV-3 ovarian
EKVX NSCLC = test system: EKVX NSCLC
HCC-2998 colon = test system: HCC-2998 colon
LOX IMVI melanoma = test system: LOX IMVI melanoma
M14 melanoma = test system: M14 melanoma
COLO 205 colon = test system: COLO 205 colon
MDA-MB-435 = test system: MDA-MB-435
SW-620 colon = test system: SW-620 colon
A498 renal = test system: A498 renal
SF-295 CNS = test system: SF-295 CNS
SK-MEL-5 melanoma = test system: SK-MEL-5 melanoma
NCI-H522 lung = test system: NCI-H522 lung
NCI-H23 lung = test system: NCI-H23 lung
SF-539 CNS = test system: SF-539 CNS
DU-145 prostate = test system: DU-145 prostate
HOP-62 NSCLC = test system: HOP-62 NSCLC
HS 578T breast = test system: HS 578T breast
NCI-H460 lung = test system: NCI-H460 lung
TK-10 renal = test system: TK-10 renal
RXF 393 renal = test system: RXF 393 renal
SN12C renal = test system: SN12C renal
HT29 colon = test system: HT29 colon
CAKI-1 renal = test system: CAKI-1 renal
HCT-116 colon = test system: HCT-116 colon
U251 CNS = test system: U251 CNS
HL-60(TB) leukemia = test system: HL-60(TB) leukemia
OVCAR-3 ovarian = test system: OVCAR-3 ovarian
UO-31 renal = test system: UO-31 renal
HOP-92 NSCLC = test system: HOP-92 NSCLC
A549 NSCLC = test system: A549 NSCLC
BT-549 breast = test system: BT-549 breast
OVCAR-4 ovarian = test system: OVCAR-4 ovarian
MDA-MB-231 breast = test system: MDA-MB-231 breast
UACC-62 melanoma = test system: UACC-62 melanoma
SK-MEL-28 melanoma = test system: SK-MEL-28 melanoma
NCI/ADR-RES ovarian = test system: NCI/ADR-RES ovarian
SK-MEL-2 melanoma = test system: SK-MEL-2 melanoma
SNB-75 CNS = test system: SNB-75 CNS
PC-3 prostate = test system: PC-3 prostate
KM12 colon = test system: KM12 colon
UACC-257 melanoma = test system: UACC-257 melanoma
T-47D breast = test system: T-47D breast
MOLT-4 leukemia = test system: MOLT-4 leukemia
OVCAR-8 ovarian = test system: OVCAR-8 ovarian

`CCCCN1CCN(c2ccc3nc(-c4ccc5nc(-c6ccc(C(F)(F)F)cc6)[nH]c5c4)[nH]c3c2)CC1` was tested, and the GI50 (ACHN renal) was 1.38 µM, the TGI (ACHN renal) was 2.68 µM and the GI50 (SF-268 CNS) was 1.74 µM. It also gave a TGI (SF-268 CNS) of 3.43 µM, a GI50 (RPMI-8226 leukemia) of 0.201 µM and a TGI (RPMI-8226 leukemia) of 0.475 µM. The GI50 (OVCAR-5 ovarian) was 1.87 µM, the TGI (OVCAR-5 ovarian) was 3.32 µM and the GI50 (CCRF-CEM leukemia) was 0.289 µM. The TGI (CCRF-CEM leukemia) was 0.945 µM, the GI50 (HCT-15 colon) was 0.303 µM and the TGI (HCT-15 colon) was 1.1 µM. It also gave a GI50 (SK-OV-3 ovarian) of 1.91 µM, a TGI (SK-OV-3 ovarian) of 3.39 µM and a GI50 (EKVX NSCLC) of 1.57 µM. The TGI (EKVX NSCLC) was 3.07 µM, the GI50 (HCC-2998 colon) was 1.84 µM and the TGI (HCC-2998 colon) was 3.55 µM. The GI50 (LOX IMVI melanoma) was 0.839 µM, the TGI (LOX IMVI melanoma) was 2.27 µM and the GI50 (M14 melanoma) was 1.34 µM. It also gave a TGI (M14 melanoma) of 2.8 µM, a GI50 (COLO 205 colon) of 1.45 µM and a TGI (COLO 205 colon) of 2.95 µM. It also gave a GI50 (MDA-MB-435) of 1.59 µM, a TGI (MDA-MB-435) of 3.01 µM and a GI50 (SW-620 colon) of 0.297 µM. For the same molecule, the TGI (SW-620 colon) was 0.841 µM, the GI50 (A498 renal) was 1.78 µM and the TGI (A498 renal) was 3.45 µM. It also gave a GI50 (SF-295 CNS) of 1.48 µM, a TGI (SF-295 CNS) of 2.95 µM and a GI50 (SK-MEL-5 melanoma) of 1.6 µM. The TGI (SK-MEL-5 melanoma) was 3.09 µM, the GI50 (NCI-H522 lung) was 1.78 µM and the TGI (NCI-H522 lung) was 3.49 µM. It also gave a GI50 (NCI-H23 lung) of 1.68 µM, a TGI (NCI-H23 lung) of 3.42 µM and a GI50 (SF-539 CNS) of 1.59 µM. The TGI (SF-539 CNS) was 3.02 µM, the GI50 (DU-145 prostate) was 0.915 µM and the TGI (DU-145 prostate) was 2.36 µM. It also gave a GI50 (HOP-62 NSCLC) of 1.54 µM, a TGI (HOP-62 NSCLC) of 2.98 µM and a GI50 (HS 578T breast) of 1.82 µM. It also gave a TGI (HS 578T breast) of 3.73 µM, a GI50 (NCI-H460 lung) of 0.64 µM and a TGI (NCI-H460 lung) of 1.33 µM. The GI50 (TK-10 renal) was 2.21 µM, the TGI (TK-10 renal) was 3.68 µM and the GI50 (RXF 393 renal) was 1.13 µM. For the same molecule, the TGI (RXF 393 renal) was 2.49 µM, the GI50 (SN12C renal) was 1.61 µM and the TGI (SN12C renal) was 3.21 µM. For the same molecule, the GI50 (HT29 colon) was 0.385 µM, the TGI (HT29 colon) was 1.45 µM and the GI50 (CAKI-1 renal) was 1.38 µM. For the same molecule, the TGI (CAKI-1 renal) was 2.69 µM, the GI50 (HCT-116 colon) was 0.348 µM and the TGI (HCT-116 colon) was 1.27 µM. It also gave a GI50 (U251 CNS) of 1.59 µM, a TGI (U251 CNS) of 2.96 µM and a GI50 (HL-60(TB) leukemia) of 0.923 µM. It also gave a TGI (HL-60(TB) leukemia) of 2.63 µM, a GI50 (OVCAR-3 ovarian) of 0.614 µM and a TGI (OVCAR-3 ovarian) of 1.12 µM. For the same molecule, the GI50 (UO-31 renal) was 1.75 µM, the TGI (UO-31 renal) was 3.24 µM and the GI50 (HOP-92 NSCLC) was 1.19 µM. It also gave a TGI (HOP-92 NSCLC) of 2.64 µM, a GI50 (A549 NSCLC) of 0.926 µM and a TGI (A549 NSCLC) of 2.24 µM. It also gave a GI50 (BT-549 breast) of 1.61 µM, a TGI (BT-549 breast) of 3.1 µM and a GI50 (OVCAR-4 ovarian) of 0.859 µM. For the same molecule, the TGI (OVCAR-4 ovarian) was 2.39 µM, the GI50 (MDA-MB-231 breast) was 1.47 µM and the TGI (MDA-MB-231 breast) was 2.94 µM. The GI50 (UACC-62 melanoma) was 1.58 µM, the TGI (UACC-62 melanoma) was 3.11 µM and the GI50 (SK-MEL-28 melanoma) was 1.69 µM. The TGI (SK-MEL-28 melanoma) was 3.19 µM, the GI50 (NCI/ADR-RES ovarian) was 3.24 µM and the TGI (NCI/ADR-RES ovarian) was over 75.9 µM. It also gave a GI50 (SK-MEL-2 melanoma) of 1.76 µM, a TGI (SK-MEL-2 melanoma) of 3.31 µM and a GI50 (SNB-75 CNS) of 1.11 µM. It also gave a TGI (SNB-75 CNS) of 2.34 µM, a GI50 (PC-3 prostate) of 0.962 µM and a TGI (PC-3 prostate) of 2.31 µM. For the same molecule, the GI50 (KM12 colon) was 1.12 µM, the TGI (KM12 colon) was 2.68 µM and the GI50 (UACC-257 melanoma) was 1.78 µM. The TGI (UACC-257 melanoma) was 3.41 µM, the GI50 (T-47D breast) was 1.38 µM and the TGI (T-47D breast) was 3.19 µM. The GI50 (MOLT-4 leukemia) was 1.07 µM, the TGI (MOLT-4 leukemia) was 2.59 µM and the GI50 (OVCAR-8 ovarian) was 1.24 µM. For the same molecule, the TGI (OVCAR-8 ovarian) was 2.64 µM.
